Measured values taken from patent US12295970B2, “Imidazoquinoline compounds and prodrugs thereof” (UNIVERSITY OF KANSAS, priority 2019, dated 2025).

Experiments:
Assay type in all cases: cell-based
hTLR7 = molecular target: T1, hTLR7 (Homo sapiens, UniProt Q9NYK1); assay: SEAP reporter assay for hTLR-7 activity (HEK-Blue hTLR7 cells); conditions: ± SD; hTLR7 transfected HEK-Blue cells, Null subtracted; three independent measurements; 12 hours; read-out: EC50 TLR7
T1 construct: host or cells: HEK293 (HEK-Blue hTLR7)
T1 sequence (Q9NYK1 27-1049): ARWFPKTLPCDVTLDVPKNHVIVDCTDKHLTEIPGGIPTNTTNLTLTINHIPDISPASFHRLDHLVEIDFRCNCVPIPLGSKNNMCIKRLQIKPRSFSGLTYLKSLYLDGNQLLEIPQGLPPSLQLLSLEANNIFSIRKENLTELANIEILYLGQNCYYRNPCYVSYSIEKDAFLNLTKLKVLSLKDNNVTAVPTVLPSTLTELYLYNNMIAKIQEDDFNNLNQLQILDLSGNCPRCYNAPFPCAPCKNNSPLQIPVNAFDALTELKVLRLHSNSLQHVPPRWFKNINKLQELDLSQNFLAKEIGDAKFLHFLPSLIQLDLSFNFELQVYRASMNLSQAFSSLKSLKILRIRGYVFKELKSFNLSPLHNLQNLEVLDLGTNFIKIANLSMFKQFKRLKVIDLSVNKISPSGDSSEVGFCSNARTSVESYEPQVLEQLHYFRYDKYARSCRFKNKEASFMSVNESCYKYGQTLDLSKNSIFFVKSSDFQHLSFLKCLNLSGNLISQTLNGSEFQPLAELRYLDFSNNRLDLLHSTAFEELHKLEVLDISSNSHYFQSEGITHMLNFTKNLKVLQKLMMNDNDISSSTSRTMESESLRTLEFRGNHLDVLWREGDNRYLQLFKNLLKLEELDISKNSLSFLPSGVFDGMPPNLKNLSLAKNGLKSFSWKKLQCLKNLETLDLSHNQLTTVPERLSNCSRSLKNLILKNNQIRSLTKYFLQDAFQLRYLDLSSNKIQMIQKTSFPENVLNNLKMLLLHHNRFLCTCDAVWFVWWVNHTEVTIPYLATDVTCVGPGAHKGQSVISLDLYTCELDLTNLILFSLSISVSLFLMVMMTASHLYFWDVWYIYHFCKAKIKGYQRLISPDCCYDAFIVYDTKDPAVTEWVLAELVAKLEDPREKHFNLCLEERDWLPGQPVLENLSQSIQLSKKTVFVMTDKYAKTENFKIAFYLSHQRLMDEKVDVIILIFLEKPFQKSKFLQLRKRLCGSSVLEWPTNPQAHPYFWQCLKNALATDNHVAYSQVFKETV
Experimental: (§1) TLR activation induces NF-κB production and subsequent SEAP secretion, which is measured using HEK-Detection media (InvivoGen) containing a colorimetric substrate for SEAP (UV-Vis, 637 nm).
(§2) The experiments followed manufacturer protocol as follows: SEAP levels were measured via absorbance at 637 nm using HEK-Blue Detection cell culture medium (InvivoGen), which contains a SEAP-specific colorimetric substrate. Compound stock solutions were first diluted in sterile DMSO at a concentration of 10 mM. Lower concentrations were prepared by serial dilution of the initial 10 mM stock samples into sterile DMSO and these solutions (22 μL) were subsequently diluted into sterile H2O (198 μL) using a BioTek Precision XS pipetting system. HEK-Blue hTLR7, HEK-Blue hTLR8, Null 1−k, and Null 1 cell suspensions in sterile HEK-Blue Detection medium were prepared at a density of 220,000 cells per mL. Clear bottom, 96-well tissue culture treated plates (Corning) were seeded with hTLR7 and Null 1−k or hTLR8 and Null 1 cell suspensions (180 μL/well), after which 20 μL of the various sample concentrations in 10% v/v DMSO/H2O were added (20 μL) in quadruplicate wells to yield the desired testing concentration in 1% v/v DMSO cell suspension. Plates were incubated at 37° C. and 5% CO2 in the dark. Absorbance measurements were taken at 637 nm at 12 hours, 4 replicates per concentration point, per cell line (hTLR7, hTLR8, Null 1−k, Null 1). Three independent measurements on different days were performed for each analog.
(§3) Corresponding well absorbance values for each concentration tested were averaged with respect to days tested, and the average relative NF-κB induction (UV-Vis, 637 nm) of the null cell lines (Null 1-k or Null 1) were subtracted from the respective average TLR expressing cell line (hTLR7 or hTLR8) absorbance averages. […] The three independent, normalized averages for each analog were then pooled, and the data was fit using the Hill-Slope model (GraphPad Prism v7.0) using the non-linear fit from the [Agonist] vs. response—Variable Slope (four parameters) with a hill slope constrained to less than 3.

hTLR8 = molecular target: T2, hTLR8 (Homo sapiens, UniProt Q9NR97); assay: SEAP reporter assay for hTLR-8 activity (HEK-Blue hTLR8 cells); conditions: ± SD; hTLR8 transfected HEK-Blue cells, Null subtracted; three independent measurements; 12 hours; >100 = no activity observed at 100 μM; read-out: EC50 TLR8
T2 construct: host or cells: HEK293 (HEK-Blue hTLR8)
T2 sequence (Q9NR97 27-1041): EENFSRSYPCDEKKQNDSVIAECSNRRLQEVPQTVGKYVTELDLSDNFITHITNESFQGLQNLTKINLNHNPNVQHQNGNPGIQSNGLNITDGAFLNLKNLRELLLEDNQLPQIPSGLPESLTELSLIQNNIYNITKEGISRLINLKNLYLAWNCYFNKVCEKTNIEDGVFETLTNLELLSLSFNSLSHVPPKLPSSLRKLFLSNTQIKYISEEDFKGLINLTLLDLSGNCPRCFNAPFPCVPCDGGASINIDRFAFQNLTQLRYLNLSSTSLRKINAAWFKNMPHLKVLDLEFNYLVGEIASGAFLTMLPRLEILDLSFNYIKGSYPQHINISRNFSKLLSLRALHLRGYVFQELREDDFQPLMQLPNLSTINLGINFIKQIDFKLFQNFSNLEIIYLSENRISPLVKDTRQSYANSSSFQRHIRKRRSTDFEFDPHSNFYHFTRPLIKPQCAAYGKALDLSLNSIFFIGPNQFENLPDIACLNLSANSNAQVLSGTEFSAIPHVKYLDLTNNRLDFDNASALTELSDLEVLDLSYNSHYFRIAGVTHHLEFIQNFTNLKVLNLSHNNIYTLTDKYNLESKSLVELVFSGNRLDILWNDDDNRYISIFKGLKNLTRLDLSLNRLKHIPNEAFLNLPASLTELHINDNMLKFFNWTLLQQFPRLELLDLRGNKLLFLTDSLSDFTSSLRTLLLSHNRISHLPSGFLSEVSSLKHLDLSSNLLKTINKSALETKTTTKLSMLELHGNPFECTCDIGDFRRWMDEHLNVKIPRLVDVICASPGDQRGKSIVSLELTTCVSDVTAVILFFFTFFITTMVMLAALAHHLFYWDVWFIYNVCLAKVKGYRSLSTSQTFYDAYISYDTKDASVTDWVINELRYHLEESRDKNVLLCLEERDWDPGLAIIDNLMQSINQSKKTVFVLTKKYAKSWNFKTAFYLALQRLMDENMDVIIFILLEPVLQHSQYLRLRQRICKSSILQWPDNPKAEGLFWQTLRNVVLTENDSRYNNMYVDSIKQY
Experimental: as §1, §2, §3

[1] = system: canine peripheral blood mononuclear cells (cPBMCs); assay: Cytokine production in canine PBMCs by ELISA (Example 2); conditions: ± SD, 20 μM, 29 hours, ELISA, triplicate
Experimental: The imidazoquinolines were further screened for cytokine production in canine peripheral blood mononuclear cells (cPBMCs). […] TNFα and IL-12 were chosen as they are typically seen in a Th-1 cytokine response.
Peripheral blood from a healthy canine donor was obtained with appropriate informed consent of the owner and under approved institutional guidelines. Blood (8 mL per tube) was drawn via sterile venipuncture into a BD Vacutainer cell preparation tube containing sodium heparin (BD Biosciences). PBMCs were isolated within one hour following procurement by density gradient centrifugation according to the manufacturer protocol and resuspended to 2.22×10^6 cells/mL in sterile RPMI 1640 medium with L-glutamine (Gibco) supplemented with 100 U/mL penicillin, 100 μg/mL streptomycin (Corning) and 10% (v/v) heat-inactivated Fetalgro (RMBIO). Corning 3917, 96-well tissue culture treated plates were seeded with the PBMC suspension (180 μL/well), 20 μL of the serially diluted TLR agonists were added in triplicate to yield the desired concentrations in a 1% (v/v) DMSO cell suspension. Cells were incubated at 37° C. in 5% CO2 for 9 hours (FIGS. 3A-3D) or 29 hours (Table 2) after which supernatants were removed and frozen at −80° C. Cytokine secretion levels were measured by ELISA (Duoset, R&D Systems) according to the manufacturer protocol. Samples and standards (n=3) were thawed and plated onto a Maxisorp flat-bottom, 384-well plate (Thermo Scientific) using a BioTek Precision XS pipetting system. Cytokine concentrations were determined by a hyperbolic or four-parameter logistic non-linear regression of the recombinant standards and subsequent interpolation using Graphpad Prism 7.0.

CCOCc1nc2c(N)nc3cc(Cl)ccc3c2n1CC(C)(C)O [Compound 9, 4-Amino-7-chloro-2-(ethoxymethyl)-1-(2-hydroxy-2-methylpropyl)-1H-imidazo[4,5-c]quinoline]
EC50 (hTLR7): 630 ± 30 nM
EC50 (hTLR8): 4.9 ± 0.6 µM
Cytokine IFNg [1]: 16 ± 2 pg/mL
Cytokine IL-2 [1]: 76 ± 59 pg/mL
Cytokine IL-6 [1]: 320 ± 76 pg/mL
Cytokine IL-10 [1]: 12 ± 3 pg/mL
Cytokine IL-12 [1]: 1900 ± 130 pg/mL
Cytokine TNFa [1]: 70 ± 8 pg/mL

CCCCc1nc2c(N)nc3cc(C#N)ccc3c2n1CC(C)C [Compound 10, 4-Amino-2-butyl-7-carbonitrile-1-(2-methylpropyl)-1H-imidazo[4,5-c]quinoline]
EC50 (hTLR7): 990 ± 400 nM
EC50 (hTLR8): > 100 µM
Cytokine IFNg [1]: 13 ± 5 pg/mL
Cytokine IL-2 [1]: 60 ± 41 pg/mL
Cytokine IL-6 [1]: 350 ± 95 pg/mL
Cytokine IL-10 [1]: 37 ± 10 pg/mL
Cytokine IL-12 [1]: 920 ± 170 pg/mL
Cytokine TNFa [1]: 10 ± 1 pg/mL

CCOCc1nc2c(N)nc3cc(C#N)ccc3c2n1CC(C)C [Compound 11, 4-Amino-7-carbonitrile-2-(ethoxymethyl)-1-(2-methylpropyl)-1H-imidazo[4,5-c]quinoline]
EC50 (hTLR7): 6800 ± 700 nM
EC50 (hTLR8): > 100 µM
Cytokine IFNg [1]: 4 ± 3 pg/mL
Cytokine IL-2 [1]: 57 ± 14 pg/mL
Cytokine IL-6 [1]: 71 ± 20 pg/mL
Cytokine IL-10 [1]: 6 ± 2 pg/mL
Cytokine IL-12 [1]: 190 ± 62 pg/mL
Cytokine TNFa [1]: 7 ± 1 pg/mL

CCCCc1nc2c(N)nc3cc(C#N)ccc3c2n1CC(C)(C)O [Compound 12, 4-Amino-2-butyl-7-carbonitrile-1-(2-hydroxy-2-methylpropyl)-1H-imidazo[4,5-c]quinoline]
EC50 (hTLR7): 790 ± 230 nM
EC50 (hTLR8): 3.9 ± 0.2 µM
Cytokine IFNg [1]: 12 ± 4 pg/mL
Cytokine IL-2 [1]: 45 ± 22 pg/mL
Cytokine IL-6 [1]: 290 ± 77 pg/mL
Cytokine IL-10 [1]: 14 ± 3 pg/mL
Cytokine IL-12 [1]: 418 ± 72 pg/mL
Cytokine TNFa [1]: 44 ± 10 pg/mL

CCOCc1nc2c(N)nc3cc(C#N)ccc3c2n1CC(C)(C)O [Compound 13, 4-Amino-7-carbonitrile-2-(ethoxymethyl)-1-(2-hydroxy-2-methylpropyl)-1H-imidazo[4,5-c]quinoline]
EC50 (hTLR7): 3500 ± 700 nM
EC50 (hTLR8): 27 ± 6 µM
Cytokine IFNg [1]: 0.2 ± 0.4 pg/mL
Cytokine IL-2 [1]: 46 ± 42 pg/mL
Cytokine IL-6 [1]: 214 ± 69 pg/mL
Cytokine IL-10 [1]: 6 ± 3 pg/mL
Cytokine IL-12 [1]: 13 ± 3 pg/mL
Cytokine TNFa [1]: 80 ± 20 pg/mL
